SMILES strings stand for the structures. Values joined by “and” are separate entries in the source; they are usually repeats but may differ in a detail not shown here. Equal values may be shown once.

One assay concerns the target T1, human Nav1.5 channels (Homo sapiens, UniProt Q14524).
T1 construct: expressed in transfected cells; host or cells: HEK 293
Description: IonWorks Quattro automated patch-clamp, Nav1.5 (selectivity versus Nav1.7). In kind it is cell-based. The following applies: selectivity Nav1.7 over Nav1.5, both by IonWorks in HEK 293 cells. The procedure:
(§1) IonWorks® Experimental Procedure
(§2) Compounds were tested on human Nav1.7 and Nav1.5 channels stably expressed in HEK 293 cells. Sodium current measurements on IonWorks Quattro: An automated patch-clamp assay on the IonWorks Quattro platform (Molecular Devices) was used to measure state-dependent inhibition of human Nav1.7 and 1.5 channels. Cells were sealed on a planar substrate using the Population Patch […] (PPC) technology. Electrical access was obtained using both nystatin and amphotericin. A double-pulse protocol was used for the determination of IC50 values for inactivated state block. Nav1.7 and Nav1.5 expressing cells were voltage clamped at −100 mV and −110 mV, respectively. A depolarizing prepulse to −10 mV (Nav1.7) or −30 mV (Nav1.5) for 1000 ms followed by a 10 ms repolarization to −100 mV (Nav1.7) or −110 mV (Nav1.5) was given to generate fractional channel inactivation of ˜ 50%, followed by a 10 ms test pulse to −10 mV (Nav1.7) or −30 mV (Nav1.5) to measure peak current in control conditions and after compound addition. The following recording solutions were used (mM). External: 150 NaCl, 2 CaCl2), 5 KCl, 1 Mg Cl2, 10 HEPES, 12 Dextrose; internal: 120 CsF, 30 CsCl, 10 EGTA, 5 HEPES, 5 NaF, 2 MgCl2.
(§3) For all electrophysiology experiments, offline analysis was used to determine percent inhibition as a function of drug concentration. IC50 values were determined by fitting to the Hill equation.
(§4) The various compounds in Examples 1 through 4 and Tables 1 through 3 exemplified above were assayed for activity and selectivity using the foregoing IonWorks® technique. The results are reported in the following paragraph in a format expressing the identification of the compound with reference Example and compound (e.g. Ex 1-9 is Example 1, compound 9) followed by the observed potency in nM and the ratio of Nav1.7 potency:Nav 1.5 potency as described here. […]
A general note: In patch-clamp work, channel activity is measured electrically.

Another assay has as its target T2, human Nav1.7 channels (Homo sapiens, UniProt Q15858).
T2 construct: expressed in transfected cells; host or cells: HEK 293
As to the kind of experiment: IonWorks Quattro automated patch-clamp, inactivated state block of Nav1.7. The following applies: human Nav1.7 stably expressed in HEK 293 cells, double-pulse protocol, read-out: potency for the Nav 1.7 sodium ion channel (as measured by IonWorks). In kind it is cell-based. The protocol: as §1, §2, §3, §4

T1 sequence (Q14524 whole entry): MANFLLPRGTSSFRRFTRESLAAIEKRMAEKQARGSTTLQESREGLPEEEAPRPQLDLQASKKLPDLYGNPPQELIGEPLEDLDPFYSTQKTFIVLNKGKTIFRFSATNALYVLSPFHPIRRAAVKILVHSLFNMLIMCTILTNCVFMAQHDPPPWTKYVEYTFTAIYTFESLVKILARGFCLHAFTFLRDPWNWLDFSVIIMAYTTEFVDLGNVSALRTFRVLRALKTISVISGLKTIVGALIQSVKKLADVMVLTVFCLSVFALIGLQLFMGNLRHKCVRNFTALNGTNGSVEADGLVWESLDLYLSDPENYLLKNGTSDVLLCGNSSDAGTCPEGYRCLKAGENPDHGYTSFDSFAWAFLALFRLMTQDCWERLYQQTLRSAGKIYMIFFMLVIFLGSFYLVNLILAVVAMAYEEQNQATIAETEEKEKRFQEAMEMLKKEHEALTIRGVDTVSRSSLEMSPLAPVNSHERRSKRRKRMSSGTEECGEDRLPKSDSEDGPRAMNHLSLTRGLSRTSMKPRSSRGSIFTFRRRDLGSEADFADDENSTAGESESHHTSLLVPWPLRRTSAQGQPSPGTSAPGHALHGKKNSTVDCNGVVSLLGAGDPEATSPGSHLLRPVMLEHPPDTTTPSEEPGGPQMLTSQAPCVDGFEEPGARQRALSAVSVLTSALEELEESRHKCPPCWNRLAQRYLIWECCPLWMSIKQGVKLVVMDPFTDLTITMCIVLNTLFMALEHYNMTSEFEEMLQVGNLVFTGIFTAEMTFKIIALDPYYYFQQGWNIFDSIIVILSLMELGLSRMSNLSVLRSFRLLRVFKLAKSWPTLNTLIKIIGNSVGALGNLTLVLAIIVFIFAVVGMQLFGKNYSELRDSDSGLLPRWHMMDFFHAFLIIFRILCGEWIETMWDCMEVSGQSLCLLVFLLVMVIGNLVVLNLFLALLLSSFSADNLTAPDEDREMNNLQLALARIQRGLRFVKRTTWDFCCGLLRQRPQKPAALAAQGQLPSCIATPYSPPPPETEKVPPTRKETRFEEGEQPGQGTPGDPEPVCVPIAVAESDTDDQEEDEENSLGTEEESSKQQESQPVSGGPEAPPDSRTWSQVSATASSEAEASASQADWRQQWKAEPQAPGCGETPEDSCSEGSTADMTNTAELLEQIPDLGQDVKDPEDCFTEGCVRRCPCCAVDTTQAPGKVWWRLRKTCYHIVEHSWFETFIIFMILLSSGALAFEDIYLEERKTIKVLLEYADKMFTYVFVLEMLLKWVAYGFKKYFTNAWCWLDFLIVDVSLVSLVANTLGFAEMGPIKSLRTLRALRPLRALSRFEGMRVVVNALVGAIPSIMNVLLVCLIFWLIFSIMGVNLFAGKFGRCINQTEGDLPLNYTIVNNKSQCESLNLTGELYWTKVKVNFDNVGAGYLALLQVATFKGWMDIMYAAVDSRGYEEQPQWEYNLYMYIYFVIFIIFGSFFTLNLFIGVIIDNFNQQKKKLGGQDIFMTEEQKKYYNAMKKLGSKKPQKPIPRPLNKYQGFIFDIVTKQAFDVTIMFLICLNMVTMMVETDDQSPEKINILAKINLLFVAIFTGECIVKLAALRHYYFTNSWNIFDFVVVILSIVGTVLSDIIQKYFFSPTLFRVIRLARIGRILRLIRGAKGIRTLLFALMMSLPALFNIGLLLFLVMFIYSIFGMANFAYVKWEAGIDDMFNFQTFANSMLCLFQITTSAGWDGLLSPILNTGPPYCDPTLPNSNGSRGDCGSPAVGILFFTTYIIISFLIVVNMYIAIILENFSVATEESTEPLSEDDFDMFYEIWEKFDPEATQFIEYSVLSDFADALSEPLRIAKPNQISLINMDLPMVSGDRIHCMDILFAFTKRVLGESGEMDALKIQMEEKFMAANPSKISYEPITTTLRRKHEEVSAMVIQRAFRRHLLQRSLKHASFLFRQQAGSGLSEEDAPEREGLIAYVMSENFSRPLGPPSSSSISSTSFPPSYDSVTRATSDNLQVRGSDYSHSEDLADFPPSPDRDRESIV
T2 sequence (Q15858 whole entry): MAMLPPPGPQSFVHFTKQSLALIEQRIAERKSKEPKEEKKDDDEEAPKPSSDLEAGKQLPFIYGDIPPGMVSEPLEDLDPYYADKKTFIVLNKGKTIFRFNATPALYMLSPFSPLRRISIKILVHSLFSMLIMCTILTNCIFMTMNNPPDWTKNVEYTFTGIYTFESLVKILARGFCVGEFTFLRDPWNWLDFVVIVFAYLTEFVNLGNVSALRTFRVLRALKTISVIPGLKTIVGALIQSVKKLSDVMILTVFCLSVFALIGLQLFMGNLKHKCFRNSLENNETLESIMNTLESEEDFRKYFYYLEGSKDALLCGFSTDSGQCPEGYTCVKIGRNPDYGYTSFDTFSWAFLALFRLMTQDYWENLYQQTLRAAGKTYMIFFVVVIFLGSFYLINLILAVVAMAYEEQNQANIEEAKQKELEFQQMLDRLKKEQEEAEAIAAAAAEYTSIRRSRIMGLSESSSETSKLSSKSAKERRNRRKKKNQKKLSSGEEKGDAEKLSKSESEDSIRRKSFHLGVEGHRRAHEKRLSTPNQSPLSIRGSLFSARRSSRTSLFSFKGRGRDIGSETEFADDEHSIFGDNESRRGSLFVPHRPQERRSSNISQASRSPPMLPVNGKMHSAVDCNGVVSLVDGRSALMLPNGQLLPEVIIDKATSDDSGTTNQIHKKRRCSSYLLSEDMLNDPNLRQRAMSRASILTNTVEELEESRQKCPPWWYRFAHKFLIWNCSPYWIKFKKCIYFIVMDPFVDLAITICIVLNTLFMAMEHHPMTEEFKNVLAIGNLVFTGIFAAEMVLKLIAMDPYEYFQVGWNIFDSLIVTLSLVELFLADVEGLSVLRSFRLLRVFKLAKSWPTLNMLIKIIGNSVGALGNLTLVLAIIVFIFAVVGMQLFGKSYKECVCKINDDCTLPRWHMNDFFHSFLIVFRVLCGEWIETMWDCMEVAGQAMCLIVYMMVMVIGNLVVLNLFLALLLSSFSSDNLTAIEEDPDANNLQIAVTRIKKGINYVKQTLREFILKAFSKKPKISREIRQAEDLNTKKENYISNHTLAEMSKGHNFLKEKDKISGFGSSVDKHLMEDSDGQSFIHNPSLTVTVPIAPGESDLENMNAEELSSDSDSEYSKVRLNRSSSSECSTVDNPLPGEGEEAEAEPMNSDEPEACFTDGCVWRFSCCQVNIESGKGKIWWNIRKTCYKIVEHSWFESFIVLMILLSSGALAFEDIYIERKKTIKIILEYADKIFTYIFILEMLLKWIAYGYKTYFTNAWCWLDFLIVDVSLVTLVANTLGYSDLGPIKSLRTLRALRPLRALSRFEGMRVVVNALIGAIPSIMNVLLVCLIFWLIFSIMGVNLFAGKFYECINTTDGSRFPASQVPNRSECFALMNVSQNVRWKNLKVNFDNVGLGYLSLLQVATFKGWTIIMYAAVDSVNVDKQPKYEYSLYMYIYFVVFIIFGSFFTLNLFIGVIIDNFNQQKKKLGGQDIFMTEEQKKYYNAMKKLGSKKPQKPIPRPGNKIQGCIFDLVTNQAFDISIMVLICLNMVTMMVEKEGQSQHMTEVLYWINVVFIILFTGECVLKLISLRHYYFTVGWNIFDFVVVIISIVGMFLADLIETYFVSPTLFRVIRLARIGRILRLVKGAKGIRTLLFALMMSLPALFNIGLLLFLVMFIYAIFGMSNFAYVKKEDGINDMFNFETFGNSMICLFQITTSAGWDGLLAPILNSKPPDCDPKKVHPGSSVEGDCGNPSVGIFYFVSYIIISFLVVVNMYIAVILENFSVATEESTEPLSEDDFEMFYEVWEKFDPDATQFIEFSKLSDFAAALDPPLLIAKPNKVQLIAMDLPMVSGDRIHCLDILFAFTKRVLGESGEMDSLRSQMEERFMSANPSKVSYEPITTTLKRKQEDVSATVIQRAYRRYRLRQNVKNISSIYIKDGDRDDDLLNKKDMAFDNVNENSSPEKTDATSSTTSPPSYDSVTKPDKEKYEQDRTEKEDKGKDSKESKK

With `NCc1ccc(C[C@@]2(CNc3cc(F)c(S(=O)(=O)Nc4nccs4)cc3Cl)C[C@H](O)CN2)cc1` [Ex2-3, 4-((((2S,4S)-2-(4-(Aminomethyl) Benzyl)-4-Hydroxypyrrolidin-2-Yl) Methyl)Amino)-5-Chloro-2-Fluoro-N-(Thiazol-2-Yl)Benzenesulfonamide], the “ratio of Nav1.7 potency:Nav 1.5 potency” value at human Nav1.5 channels worked out at 868. The IC50 at human Nav1.7 channels was 38 nM.

Turning to `O=S(=O)(Nc1nccs1)c1cc(Cl)c(NC[C@]2(Cc3ccc(-c4ncco4)cc3)C[C@H](O)CN2)cc1F` [Ex3-3, 5-chloro-2-fluoro-4-((((2S,4S)-4-hydroxy-2-(4-(oxazol-2-yl)benzyl)pyrrolidin-2-yl)methyl)amino)-N-(thiazol-2-yl)benzenesulfonamide], on human Nav1.5 channels, the “ratio of Nav1.7 potency:Nav 1.5 potency” value worked out at 933. Also, the IC50 on human Nav1.7 channels was determined as 9 nM.

On to `O=S(=O)(Nc1nccs1)c1cc(Cl)c(NC[C@]2(Cc3cccc(Br)c3)C[C@H](O)CN2)cc1F` [Ex1-30, 4-((((2S,4S)-2-(3-bromobenzyl)-4-hydroxypyrrolidin-2-yl)methyl)amino)-5-chloro-2-fluoro-N-(thiazol-2-yl) benzenesulfonamide], for which, on human Nav1.5 channels, the “ratio of Nav1.7 potency:Nav 1.5 potency” value was determined as 1220. For the same compound, the IC50 at human Nav1.7 channels came to 7 nM.

In the case of `COc1cccc(C[C@@]2(CNc3cc(F)c(S(=O)(=O)Nc4nccs4)cc3Cl)C[C@H](O)CN2)c1` [Ex1-31, 5-chloro-2-fluoro-4-((((2S,4S)-4-hydroxy-2-(3-methoxybenzyl)pyrrolidin-2-yl)methyl)amino)-N-(thiazol-2-yl) benzenesulfonamide], the “ratio of Nav1.7 potency:Nav 1.5 potency” value on human Nav1.5 channels amounted to 4714. Moreover, the IC50 at human Nav1.7 channels was 7 nM.

As to `O=S(=O)(Nc1nccs1)c1cc(Cl)c(NC[C@]2(CCc3ccccc3)C[C@H](O)CN2)cc1F` [Ex1-28, 5-Chloro-2-Fluoro-4-((((2S,4S)-4-Hydroxy-2-Phenethylpyrrolidin-2-Yl)Methyl)-Amino)-N-(Thiazol-2-Yl)Benzenesulfonamide], the “ratio of Nav1.7 potency:Nav 1.5 potency” value on human Nav1.5 channels was found to be 11000. Further, the IC50 at human Nav1.7 channels is 3 nM.

`O=S(=O)(Nc1nccs1)c1cc(Cl)c(NC[C@]2(CCCc3ccccc3)C[C@H](O)CN2)cc1F` [Ex1-29, 5-chloro-2-fluoro-4-((((2S,4S)-4-hydroxy-2-(3-phenylpropyl)-pyrrolidin-2-yl)methyl)amino)-N-(thiazol-2-yl)-benzene-sulfonamide]: the “ratio of Nav1.7 potency:Nav 1.5 potency” value at human Nav1.5 channels turned out to be 10500. For the same compound, the IC50 at human Nav1.7 channels turned out to be 2 nM.

As to `O=S(=O)(Nc1nccs1)c1cc(Cl)c(NC[C@]2(CC3CCC3)C[C@H](O)CN2)cc1F` [Ex1-15, 5-Chloro-4-((((2S,4S)-2-(Cyclobutylmethyl)-4-Hydroxypyrrolidin-2 Yl)Methyl)Amino)-2-Fluoro-N-(Thiazol-2-Yl)Benzenesulfonamide], the “ratio of Nav1.7 potency:Nav 1.5 potency” value at human Nav1.5 channels was greater than 7500. For the same compound, the IC50 at human Nav1.7 channels came out at 4 nM.

In the case of `O=S(=O)(Nc1nccs1)c1cc(Cl)c(NC[C@]2(Cc3ccc(Br)cc3)C[C@H](O)CN2)cc1F` [Ex1-22, 4-((((2S,4S)-2-(4-Bromobenzyl)-4-Hydroxypyrrolidin-2-Yl)Methyl)Amino)-5-Chloro-2-Fluoro-N-(Thiazol-2-Yl)Benzenesulfonamide], the “ratio of Nav1.7 potency:Nav 1.5 potency” value on human Nav1.5 channels was found to be 84. The IC50 on human Nav1.7 channels is 4 nM.

Turning to `O=S(=O)(Nc1nccs1)c1cc(Cl)c(NC[C@]2(Cc3ccc(-c4ccn[nH]4)cc3)C[C@H](O)CN2)cc1F` [Ex4-2, 4-((((2S,4S)-2-(4-(1H-Pyrazol-5-Yl)Benzyl)-4-Hydroxypyrrolidin-2-Yl) Methyl)Amino)-5-Chloro-2-Fluoro-N-(Thiazol-2-Yl)Benzenesulfonamide], on human Nav1.5 channels, the “ratio of Nav1.7 potency:Nav 1.5 potency” value was found to be 367. Besides, at human Nav1.7 channels, the IC50 is 18 nM.

With `N#Cc1ccc(C[C@@]2(CNc3cc(F)c(S(=O)(=O)Nc4nccs4)cc3Cl)C[C@H](O)CN2)cc1` [Ex2-2, 5-Chloro-4-((((2S,4S)-2-(4-Cyanobenzyl)-4-Hydroxypyrrolidin-2-Yl)Methyl)Amino)-2-Fluoro-N-(Thiazol-2-Yl)Benzenesulfonamide], at human Nav1.5 channels, the “ratio of Nav1.7 potency:Nav 1.5 potency” value was 3000. Also, the IC50 on human Nav1.7 channels turned out to be 4 nM.

On to `O=S(=O)(Nc1nccs1)c1cc(Cl)c(NC[C@]2(Cc3cccc(F)c3)C[C@H](O)CN2)cc1F` [Ex1-33, 5-chloro-2-fluoro-4-((((2S,4S)-2-(3-fluorobenzyl)-4-hydroxypyrrolidin-2-yl)methyl)amino)-N-(thiazol-2-yl) benzenesulfonamide], for which, on human Nav1.5 channels, the “ratio of Nav1.7 potency:Nav 1.5 potency” value is 1714. Also, on human Nav1.7 channels, the IC50 stood at 7 nM.

In the case of `Cc1cccc(C[C@@]2(CNc3cc(F)c(S(=O)(=O)Nc4nccs4)cc3Cl)C[C@H](O)CN2)c1` [Ex1-32], the “ratio of Nav1.7 potency:Nav 1.5 potency” value on human Nav1.5 channels is reported as 16500. Moreover, the IC50 on human Nav1.7 channels was determined as 2 nM.

For the compound `NCc1cccc(C[C@@]2(CNc3cc(F)c(S(=O)(=O)Nc4nccs4)cc3Cl)C[C@H](O)CN2)c1` [Ex2-5, 4-((((2S,4S)-2-(3-(aminomethyl)benzyl)-4-hydroxypyrrolidin-2-yl)methyl)amino)-5-chloro-2-fluoro-N-(thiazol-2-yl)benzenesulfonamide], the “ratio of Nav1.7 potency:Nav 1.5 potency” value at human Nav1.5 channels came to 6250. The IC50 at human Nav1.7 channels worked out at 4 nM.

In the case of `N#Cc1cccc(C[C@@]2(CNc3cc(F)c(S(=O)(=O)Nc4nccs4)cc3Cl)C[C@H](O)CN2)c1` [Ex2-4, 5-chloro-4-((((2S,4S)-2-(3-cyanobenzyl)-4-hydroxypyrrolidin-2-yl)methyl)amino)-2-fluoro-N-(thiazol-2-yl)benzenesulfonamide], the “ratio of Nav1.7 potency:Nav 1.5 potency” value at human Nav1.5 channels was determined as 2909. In addition, on human Nav1.7 channels, the IC50 was 11 nM.

For the compound `O=S(=O)(Nc1nccs1)c1cc(Cl)c(NC[C@]2(Cc3ccccc3)C[C@H](O)CN2)cc1F` [Ex1-9, 4-((((2S,4S)-2-Benzyl-4-Hydroxypyrrolidin-2-Yl)Methyl)Amino)-5-Chloro-2-Fluoro-N-(Thiazol-2-Yl)Benzenesulfonamide], the “ratio of Nav1.7 potency:Nav 1.5 potency” value on human Nav1.5 channels was 3976 and > 3976. The IC50 at human Nav1.7 channels was 8 nM.

For `O=S(=O)(Nc1nccs1)c1cc(Cl)c(NC[C@]2(Cc3ccc(-c4ccccn4)cc3)C[C@H](O)CN2)cc1F` [Ex3-2, 5-Chloro-2-Fluoro-4-((((2S,4S)-4-Hydroxy-2-(4-(Pyridin-2-Yl)Benzyl)Pyrrolidin-2-Yl)Methyl)Amino)-N-(Thiazol-2-Yl)Benzenesulfonamide], at human Nav1.5 channels, the “ratio of Nav1.7 potency:Nav 1.5 potency” value is given as 543. On human Nav1.7 channels, the IC50 was determined as 7 nM.

As to `CC(C)(C)CC[C@@]1(CNc2cc(F)c(S(=O)(=O)Nc3nccs3)cc2Cl)C[C@H](O)CN1` [Ex1-34, 5-chloro-4-((((2S,4S)-2-(3,3-dimethylbutyl)-4-hydroxypyrrolidin-2-yl)methyl)amino)-2-fluoro-N-(thiazol-2-yl) benzenesulfonamide], the “ratio of Nav1.7 potency:Nav 1.5 potency” value at human Nav1.5 channels was 6750. Besides, the IC50 on human Nav1.7 channels was 4 nM.

Source of the values: patent US12427159B2, “Hydroxypyrrolidine-substituted arylsulfonamide compounds with selective activity in voltage-gated sodium channels” (Merck Sharp & Dohme LLC, priority 2019, dated 2025).
